According to publication PMC10508264, “Exploring the antioxidant, antimicrobial, cytotoxic and biothermodynamic properties of novel morpholine derivative bioactive Mn(II), Co(II) and Ni(II) complexes – combined experimental and theoretical measurements towards DNA/BSA/SARS-CoV-2 3CL^Pro” (RSC Medicinal Chemistry, 2023):
Values joined by “and” are separate entries in the source; they are usually repeats but may differ in a detail not shown here. Equal values may be shown once. Read-outs that look alike come from different tables or passages of the source.

How the values were obtained:
[1] = Shake flask n-octanol/deionized water partition (lipophilicity); assay type: physicochemical; details: for pKa: Henderson–Hasselbalch; for Concentration, aqueous layer: deionised water phase; for Concentration, organic layer: n-octanol phase
Description: The lipophilicity of all complexes and free ligands was evaluated by the flask-shaking method through n-octanol/deionized water phase partition.[49–51] The partition coefficients (log Po/w) and distribution coefficients (log Do/w) of all substances were also acquired from molar absorption coefficients, conductivity, and pH measurements.[52–54]
Lipophilicity is an imperative factor in anticancer and antimicrobial properties, particularly the necessity for a relevant hydrophobicity to assist the crossing of the cell membrane. This is also supported for the characterization of a drug because it has a fundamental impact on the pharmacokinetic profile and is associated with its capacity to enter tumor cells through passive diffusion.[139] […] This is probably due to the fact that hydrophobic effects play a crucial role not only in the intramolecular interactions that take place between a medication and its target site, but also in the distribution of a drug within a biosystem, its interaction with rival binding sites, passage across and into membranes, and its interaction with metabolizing enzymes. However, the “accurate” model system for hydrophobic effects is octanol/water. Hydrophobicity (lipophilicity) is associated with the partition coefficient (log P), which is a measure of the ability of the solute to go into two immiscible phases (polar and non-polar environments). Also, it refers to the concentration of unionized species of compounds. Generally, the ability of a drug to penetrate with high permeability into lipid membranes depends on the solubility and partition coefficient of the drug. Furthermore, the partition coefficient is extensively employed in the discovery of new medications, chromatography, physical chemistry, environmental science and other fields. Since lipophilicity is one of the major parameters affecting important biological processes, it can influence drug intake via the absorption, distribution, metabolism, excretion, and toxicity (ADMET) characteristics of the substances.[140] Additionally, the ability of a molecule or drug to passively diffuse across cell membranes has been linked to its lipophilicity, which is a measure of the solubility of the substance in aqueous and lipid-like environments.[141] In general, chemotherapeutic medications often need to have certain solubility in the lipid phase in order to be absorbed by the biofilm. Meanwhile, the intracellular milieu is a water-soluble environment once the drug has entered the cell. The medicine must be water-soluble for it to have any anticancer effects. […] Conversely, the cytotoxic properties of a synthesized complex are not only associated with its DNA/protein binding affinity but may be also influenced by its lipophilicity. Additionally, molecules with higher lipophilicity have increased permeability into cell membranes, which determines a drug's cytotoxicity. […] However, more positive partition coefficient values (log P > 0) correspond to higher lipophilicity, and more negative values (log P < 0) correspond to higher hydrophilicity. Generally, log P is measured between −3 and +10; if […], the substance has an extremely hydrophilic character, and if log P > +10, the substance has an extremely hydrophobic character. In addition, the aromatic ligands get larger in size and become more hydrophobic. […] The present complexes (1–3) have higher values of log P and log D compared to the free ligand (Table 11). However, when log P > ±2, the drug will be harder to excrete from the body due to its high lipophilic character, which also creates toxicity due to accumulation. […] (Table 11). […] The observed results are also well correlated with cytotoxic properties. Moreover, in an equilibrium two-component system, the partition coefficient (log P) reflects the ratio of neutral solute concentrations in the organic and aqueous phases. As a result, log P expresses the inherent lipophilicity of a compound in the absence of dissociation or ionization. […]

Candida albicans = assay: Agar disc diffusion, strain I; assay type: cell-based; parameters: Inhibition%: concentration or dose not given beside the values; details: for Diameter of clear zone inhibition: control 6 mm
HepG2 = assay: MTT cell viability assay, HepG2; assay type: cell-based, human; details: HepG2, 72 h of exposure
MCF-7 = assay: MTT cell viability assay, MCF-7; assay type: cell-based, human; details: MCF-7, 72 h of exposure
Shigella flexneri = assay: Agar disc diffusion, strain E; assay type: cell-based; parameters: Inhibition%: concentration or dose not given beside the values; details: for Diameter of clear zone inhibition: control 6 mm
[2] = DPPH radical scavenging assay; assay type: biochemical; details: for % Inhibition, DPPH: 517 nm
Staphylococcus Aureus = assay: Agar disc diffusion, strain F; assay type: cell-based; parameters: Inhibition%: concentration or dose not given beside the values; details: for Diameter of clear zone inhibition: control 6 mm
[3] = Hydroxyl radical scavenging assay; assay type: biochemical; details: for % Inhibition, hydroxyl radical: 230 nm
[4] = Nitric oxide scavenging assay; assay type: biochemical; details: 546 nm
A549 = assay: MTT cell viability assay, A549; assay type: cell-based, human; details: A549, 72 h of exposure
Pseudomonas aeruginosa = assay: Agar disc diffusion, strain D; assay type: cell-based; parameters: Inhibition%: concentration or dose not given beside the values; details: for Diameter of clear zone inhibition: control 6 mm
[5] = n-octanol/deionised water, shake flask

SMILES | Concentration, aqueous ions [1] [µM] | Net pH [1] | Concentration, aqueous layer [1] [µM] | Concentration, organic layer [1] [µM] | Inhibition% (Candida albicans) [%] | Diameter of clear zone inhibition (Candida albicans) [mm] | Inhibition% (Shigella flexneri) [%] | Diameter of clear zone inhibition (Shigella flexneri) [mm] | % Inhibition, DPPH ([2]; 40 µM) [%] | % Inhibition, DPPH ([2]; 80 µM) [%] | % Inhibition, DPPH ([2]; 120 µM) [%] | % Inhibition, DPPH ([2]; 160 µM) [%] | % Inhibition, DPPH ([2]; 200 µM) [%] | % Inhibition, DPPH ([2]; 240 µM) | Inhibition% (Staphylococcus Aureus) [%] | Diameter of clear zone inhibition (Staphylococcus Aureus) [mm] | % Inhibition, hydroxyl radical ([3]; 40 µM) [%] | % Inhibition, hydroxyl radical ([3]; 80 µM) [%] | % Inhibition, hydroxyl radical ([3]; 120 µM) [%] | % Inhibition, hydroxyl radical ([3]; 160 µM) [%] | other results
[Mn+2].[O-]c1ccccc1N=Cc1ccc(N2CCOCC2)cc1.[O-]c1ccccc1N=Cc1ccc(N2CCOCC2)cc1.c1ccc(-c2ccccn2)nc1 [(1)] | 238 | 3.48 | 1600 | 23500 | 57 | 14 | 40 | 10 | 11.16 | 18.62 | 30.41 | 37.32 | 42.47 | 62.23% and 58.05% | 40 | 10 | 10.08 | 17.89 | 28.56 | 34.04 | pKa [1]: 3.42; Log D ([1]; n-octanol/deionised water): 1.107; Log P [1, 5]: 1.166; IC50 (HepG2): 36 ± 1.8 µM; IC50 (MCF-7): 36.6 ± 1.8 µM; % Inhibition, hydroxyl radical ([3]; 200 µM): 44.92%; % Inhibition, hydroxyl radical ([3]; 240 µM): 56.03%; % Inhibition, nitric oxide ([4]; 40 µM): 13.14%; % Inhibition, nitric oxide ([4]; 80 µM): 22.48%; % Inhibition, nitric oxide ([4]; 120 µM): 28.54%; % Inhibition, nitric oxide ([4]; 160 µM): 36.64%; % Inhibition, nitric oxide ([4]; 200 µM): 44.75%; % Inhibition, nitric oxide ([4]; 240 µM): 56.69%; IC50 (A549): 37.6 ± 1.9 µM; Inhibition% (Pseudomonas aeruginosa): 63%; Diameter of clear zone inhibition (Pseudomonas aeruginosa): 16 mm
[Co+2].[O-]c1ccccc1N=Cc1ccc(N2CCOCC2)cc1.[O-]c1ccccc1N=Cc1ccc(N2CCOCC2)cc1.c1ccc(-c2ccccn2)nc1 [(2)] | 56.6 | 4.38 | 12000 | 400 | 50 | 12 | 33 | 09 | 14.20 | 26.76 | 31.64 | 45.67 | 52.54 | 62.23% | 45 | 11 | 08.02 | 15.24 | 26.23 | 36.41 | pKa [1]: 4.36; Log D ([1]; n-octanol/deionised water): −1.497; Log P [1, 5]: −1.477; IC50 (HepG2): 35.9 ± 1.8 µM; IC50 (MCF-7): 35.9 ± 1.8 µM; IC50 [2]: 200 µM; IC50 [3]: 200 µM; % Inhibition, hydroxyl radical ([3]; 200 µM): 46.17%; % Inhibition, hydroxyl radical ([3]; 240 µM): 56.85%; % Inhibition, nitric oxide ([4]; 40 µM): 14.72%; % Inhibition, nitric oxide ([4]; 80 µM): 23.62%; % Inhibition, nitric oxide ([4]; 120 µM): 31.21%; % Inhibition, nitric oxide ([4]; 160 µM): 39.12%; % Inhibition, nitric oxide ([4]; 200 µM): 46.06%; % Inhibition, nitric oxide ([4]; 240 µM): 61.34%; IC50 (A549): 34.2 ± 1.7 µM; Inhibition% (Pseudomonas aeruginosa): 54%; Diameter of clear zone inhibition (Pseudomonas aeruginosa): 13 mm
[Ni+2].[O-]c1ccccc1N=Cc1ccc(N2CCOCC2)cc1.[O-]c1ccccc1N=Cc1ccc(N2CCOCC2)cc1.c1ccc(-c2ccccn2)nc1 [(3)] | 35.7 | 4.76 | 1250 | 18500 | 63 | 16 | 54 | 13 | 13.08 | 24.74 | 30.86 | 41.06 | 49.83 | 60.02% | 40 | 10 | 07.67 | 15.86 | 26.12 | 35.43 | pKa [1]: 4.75; Log D ([1]; n-octanol/deionised water): 1.158; Log P [1, 5]: 1.170; IC50 (HepG2): 33.6 ± 1.7 µM; IC50 (MCF-7): 34.5 ± 1.7 µM; % Inhibition, hydroxyl radical ([3]; 200 µM): 45.56%; % Inhibition, hydroxyl radical ([3]; 240 µM): 55.75%; % Inhibition, nitric oxide ([4]; 40 µM): 14.72%; % Inhibition, nitric oxide ([4]; 80 µM): 23.28%; % Inhibition, nitric oxide ([4]; 120 µM): 29.66%; % Inhibition, nitric oxide ([4]; 160 µM): 38.63%; % Inhibition, nitric oxide ([4]; 200 µM): 45.60%; % Inhibition, nitric oxide ([4]; 240 µM): 59.65%; IC50 (A549): 33.5 ± 1.7 µM; Inhibition% (Pseudomonas aeruginosa): 57%; Diameter of clear zone inhibition (Pseudomonas aeruginosa): 14 mm
Oc1ccccc1N=Cc1ccc(N2CCOCC2)cc1 [(HL), 2-(4-morpholinobenzylideneamino)phenol] | 789 | 3.35 | 900 | 11000 | 40 | 10 | 57 | 14 | 09.45 | 15.21 | 26.36 | 34.56 | 39.41 | 52.45% | 33 | 09 | 07.26 | 14.43 | 25.52 | 33.86 | logD at 24 h ([1]; n-octanol/deionised water, pH 7.11): 0.814; pKa ([1]; n-octanol/deionized water (shake flask), pH 3.35, read-out: pKa): 3.08; logP at 24 h ([1]; pH 7.11, n-octanol/deionised water, shake flask): 1.09; IC50 (HepG2; Homo sapiens): 108 ± 5.4 µM; IC50 (MCF-7; Homo sapiens, MCF7): 105 ± 5.3 µM; % Inhibition, hydroxyl radical ([3]; 200 µM): 40.73%; % Inhibition, hydroxyl radical ([3]; 240 µM): 50.68%; % Inhibition, nitric oxide ([4]; 40 µM): 11.42%; % Inhibition, nitric oxide ([4]; 80 µM): 18.26%; % Inhibition, nitric oxide ([4]; 120 µM): 24.28%; % Inhibition, nitric oxide ([4]; 160 µM): 33.21%; % Inhibition, nitric oxide ([4]; 200 µM): 40.53%; % Inhibition, nitric oxide ([4]; 240 µM): 51.62%; IC50 (A549; Homo sapiens): 126 ± 6.3 µM; Inhibition% (Pseudomonas aeruginosa): 25%; Diameter of clear zone inhibition (Pseudomonas aeruginosa): 08 mm
